Assay results as given in PubChem BioAssay AID248 (DTP/NCI, 2004).
Several values for one entry are separate records, joined by “and”; a condition that tells them apart may be missing. Identical values can stand only once. Inconclusive results and toxic doses are left out. Rule as the data show it: active = T/C of 150% or more; inactive = T/C below 125%.

Tested on: L1210 leukemia ip in BDF1 mice, survival T/C
Assay: NCI In Vivo Anticancer Drug Screen. Data for tumor model L1210 Leukemia (intraperitoneal) in B6D2F1 (BDF1) mice
Conditions: endpoint: mean survival time, higher = longer survival
Protocol: The antitumor activity of compounds was measured in mice bearing transplantable tumors. Survival or tumor size were measured and the results are expressed as the measurement made in the treated group (T) divided by the measurement made in the vehicle treated control group (C). The tumor model used in this assay is L1210 Leukemia (intraperitoneal) in B6D2F1 (BDF1) mice

[1] = dose: 50.0 mg/kg/injection, schedule: Q01DX009 (ip), vehicle: saline with Tween-80
[2] = dose: 100.0 mg/kg/injection, schedule: Q01DX009 (ip), vehicle: saline with Tween-80
[3] = dose: 100.0 mg/kg/injection, schedule: Q04DX002 (ip), vehicle: Klucel (hydroxypropylcellulose) (HPC)
[4] = dose: 200.0 mg/kg/injection, schedule: Q04DX002 (ip), vehicle: Klucel (hydroxypropylcellulose) (HPC)
[5] = dose: 100.0 mg/kg/injection, schedule: Q01DX001 (ip), vehicle: saline
[6] = dose: 200.0 mg/kg/injection, schedule: Q01DX001 (ip), vehicle: saline
[7] = dose: 400.0 mg/kg/injection, schedule: Q01DX001 (ip), vehicle: saline

Measured: T/C

COc1ccc(/C=N/CCl)cc1
inactive: dose: 100.0 mg/kg/injection, schedule: Q04DX003 (ip), vehicle: saline with Tween-80 110 % of control | dose: 200.0 mg/kg/injection, schedule: Q04DX003 (ip), vehicle: saline with Tween-80 92 % of control | dose: 400.0 mg/kg/injection, schedule: Q04DX003 (ip), vehicle: saline with Tween-80 96 % of control

CCOC(=O)c1ccc(N=CNc2ccc(C(=O)OCC)cc2)cc1
inactive: dose: 12.5 mg/kg/injection, schedule: Q01DX001 (ip), vehicle: other 106 % of control | dose: 12.5 mg/kg/injection, schedule: Q01DX009 (ip), vehicle: saline with Tween-80 100 % of control | dose: 12.5 mg/kg/injection, schedule: Q04DX003 (ip), vehicle: saline with Tween-80 96 % of control | dose: 25.0 mg/kg/injection, schedule: Q01DX001 (ip), vehicle: other 95 % of control | dose: 25.0 mg/kg/injection, schedule: Q01DX009 (ip), vehicle: saline with Tween-80 93 % of control | dose: 25.0 mg/kg/injection, schedule: Q04DX003 (ip), vehicle: saline with Tween-80 95 % of control | dose: 50.0 mg/kg/injection, schedule: Q01DX001 (ip), vehicle: other 93 % of control | [1] 96 % of control | dose: 50.0 mg/kg/injection, schedule: Q04DX003 (ip), vehicle: saline with Tween-80 95 % of control

CN(C)C=NCCNc1ccc([N+](=O)[O-])cn1
inactive: [1] 100 % of control | dose: 100.0 mg/kg/injection, schedule: Q01DX001 (ip), vehicle: saline with Tween-80 98 % of control | [2] 100 % of control | dose: 200.0 mg/kg/injection, schedule: Q01DX001 (ip), vehicle: saline with Tween-80 95 % of control

CCCCOC(=O)C=O
inactive: [1] 106 % of control | [2] 97 % of control

Cc1ccc(S(=O)(=O)NCCCCCC(=O)OCc2ccccc2)cc1
inactive: dose: 50.0 mg/kg/injection, schedule: Q01DX009 (ip), vehicle: saline 97 % of control | dose: 100.0 mg/kg/injection, schedule: Q01DX009 (ip), vehicle: saline 94 % of control and 100 % of control | dose: 100.0 mg/kg/injection, schedule: Q04DX003 (ip), vehicle: saline 108 % of control | dose: 200.0 mg/kg/injection, schedule: Q01DX009 (ip), vehicle: saline 96 % of control and 104 % of control | dose: 200.0 mg/kg/injection, schedule: Q04DX003 (ip), vehicle: saline 101 % of control | dose: 400.0 mg/kg/injection, schedule: Q01DX009 (ip), vehicle: saline 94 % of control | dose: 400.0 mg/kg/injection, schedule: Q04DX003 (ip), vehicle: saline 100 % of control

CCCNC(=O)Oc1ccc(C2CCCCC2)cc1
inactive: dose: 100.0 mg/kg/injection, schedule: Q01DX001 (ip), vehicle: other 100 % of control | dose: 100.0 mg/kg/injection, schedule: Q01DX009 (ip), vehicle: other 104 % of control and 87 % of control | [3] 110 % of control | dose: 100.0 mg/kg/injection, schedule: Q04DX002 (ip), vehicle: other 105 % of control and 109 % of control | dose: 100.0 mg/kg/injection, schedule: Q04DX003 (ip), vehicle: other 100 % of control | dose: 200.0 mg/kg/injection, schedule: Q01DX001 (ip), vehicle: other 100 % of control | dose: 200.0 mg/kg/injection, schedule: Q01DX009 (ip), vehicle: other 103 % of control and 111 % of control | [4] 100 % of control | dose: 200.0 mg/kg/injection, schedule: Q04DX002 (ip), vehicle: other 95 % of control and 111 % of control | dose: 200.0 mg/kg/injection, schedule: Q04DX003 (ip), vehicle: other 102 % of control | dose: 400.0 mg/kg/injection, schedule: Q01DX001 (ip), vehicle: other 97 % of control | dose: 400.0 mg/kg/injection, schedule: Q01DX009 (ip), vehicle: other 101 % of control and 112 % of control | dose: 400.0 mg/kg/injection, schedule: Q04DX002 (ip), vehicle: other 95 % of control and 107 % of control | dose: 400.0 mg/kg/injection, schedule: Q04DX003 (ip), vehicle: other 104 % of control

NC(=O)C1(NC2CCCCC2)CCN(Cc2ccccc2)CC1
inactive: dose: 50.0 mg/kg/injection, schedule: Q01DX009 (ip), vehicle: gum acacia 100 % of control | dose: 100.0 mg/kg/injection, schedule: Q01DX009 (ip), vehicle: gum acacia 100 % of control | dose: 100.0 mg/kg/injection, schedule: Q04DX003 (ip), vehicle: gum acacia 96 % of control | dose: 200.0 mg/kg/injection, schedule: Q01DX009 (ip), vehicle: gum acacia 93 % of control | dose: 200.0 mg/kg/injection, schedule: Q04DX003 (ip), vehicle: gum acacia 96 % of control

Nc1nc(N)c2cc(N3CCCC3c3ccc(Cl)c(Cl)c3)ccc2n1 (stereo not given)
inactive: dose: 1.56 mg/kg/injection, schedule: Q01DX009 (ip), vehicle: water 103 % of control | dose: 3.12 mg/kg/injection, schedule: Q01DX009 (ip), vehicle: water 110 % of control | dose: 6.25 mg/kg/injection, schedule: Q01DX009 (ip), vehicle: water 98 % of control

CC1OC(n2ncc(=O)[nH]c2=O)C2OC(C)(C)OC2C1=O (stereo not given)
inactive: dose: 12.5 mg/kg/injection, schedule: Q01DX005 (ip), vehicle: distilled water + Tween-80 108 % of control | dose: 25.0 mg/kg/injection, schedule: Q01DX005 (ip), vehicle: distilled water + Tween-80 95 % of control | dose: 50.0 mg/kg/injection, schedule: Q01DX005 (ip), vehicle: distilled water + Tween-80 92 % of control | dose: 100.0 mg/kg/injection, schedule: Q01DX005 (ip), vehicle: distilled water + Tween-80 95 % of control | dose: 200.0 mg/kg/injection, schedule: Q01DX005 (ip), vehicle: distilled water + Tween-80 97 % of control

CN=C(NC)NCc1ccccc1
inactive: dose: 50.0 mg/kg/injection, schedule: Q01DX001 (ip), vehicle: saline 95 % of control | [5] 97 % of control

Cc1cccc2ccccc12
inactive: [3] 107 % of control | [4] 107 % of control | dose: 400.0 mg/kg/injection, schedule: Q04DX002 (ip), vehicle: Klucel (hydroxypropylcellulose) (HPC) 107 % of control

CCOC(=O)c1ccc(NCCC(=O)CBr)cc1
inactive: dose: 5.0 mg/kg/injection, schedule: Q01DX001 (ip), vehicle: carboxymethylcellulose (CMC) 97 % of control | dose: 10.0 mg/kg/injection, schedule: Q01DX001 (ip), vehicle: carboxymethylcellulose (CMC) 97 % of control | dose: 20.0 mg/kg/injection, schedule: Q01DX001 (ip), vehicle: carboxymethylcellulose (CMC) 92 % of control | dose: 40.0 mg/kg/injection, schedule: Q01DX001 (ip), vehicle: carboxymethylcellulose (CMC) 100 % of control

C/C(=C\CN1C(=O)CN(C)C1=O)CCC1OC1(C)C (stereo not given)
inactive: [5] 115 % of control | dose: 100.0 mg/kg/injection, schedule: Q04DX003 (ip), vehicle: water 100 % of control | [6] 111 % of control | dose: 200.0 mg/kg/injection, schedule: Q04DX003 (ip), vehicle: water 98 % of control | [7] 114 % of control | dose: 400.0 mg/kg/injection, schedule: Q04DX003 (ip), vehicle: water 104 % of control

OC(c1ccccc1)C(c1ccccc1)N1CC1 (stereo not given)
inactive: dose: 75.0 mg/kg/injection, schedule: Q01DX001 (ip), vehicle: carboxymethylcellulose (CMC) 93 % of control | dose: 150.0 mg/kg/injection, schedule: Q01DX001 (ip), vehicle: carboxymethylcellulose (CMC) 92 % of control | dose: 300.0 mg/kg/injection, schedule: Q01DX001 (ip), vehicle: carboxymethylcellulose (CMC) 92 % of control

CCCCCCCCCCCCN1CC1
inactive: dose: 10.0 mg/kg/injection, schedule: Q01DX009 (ip), vehicle: Klucel (hydroxypropylcellulose) (HPC) 108 % of control | dose: 20.0 mg/kg/injection, schedule: Q01DX009 (ip), vehicle: Klucel (hydroxypropylcellulose) (HPC) 109 % of control

CC(C)(C)OC(=O)N1C2c3ccccc3C1C1C2N=NN1c1ccccc1 (stereo not given)
inactive: [5] 110 % of control | [6] 95 % of control | [7] 91 % of control
